What all share (type): functional, cell-based
For assay [1], the system named is RAW264.7. As to the kind of experiment: Antiinflammatory activity against mouse RAW264.7 cells assessed as effect on PGE2 level at 5 to 10 uM after 24 hrs by ELISA relative to control. Background: ELISA stands for enzyme-linked immunosorbent assay.
In assay [2] the test system is BV-2. As to the kind of experiment: Antiinflammatory activity against mouse BV2 cells assessed as effect on PGE2 level at 5 to 10 uM after 24 hrs by ELISA relative to control.
Assay [3] deals with RAW264.7. As to the kind of experiment: Antiinflammatory activity against mouse RAW264.7 cells assessed as inhibition of LPS-induced NO production preincubated for 1 hr followed by LPS addition measured after 24 hrs by Griess method. (In general: Griess reagent forms a coloured azo dye with nitrite.)
Assay [4] concerns RAW264.7. As to the kind of experiment: Antiinflammatory activity against mouse RAW264.7 cells assessed as inhibition of LPS-induced PGE2 production at 5 to 10 uM preincubated for 1 hr followed by LPS addition measured after 24 hrs by ELISA.
Assay [5] is described as follows: Antiinflammatory activity against mouse BV2 cells assessed as inhibition of LPS-induced NO production preincubated for 1 hr followed by LPS addition measured after 24 hrs by Griess method. The conditions noted are these: BV-2.
Assay [6] concerns BV-2. The experiment in a line: Antiinflammatory activity against mouse BV2 cells assessed as inhibition of LPS-induced PGE2 production at 5 to 10 uM preincubated for 1 hr followed by LPS addition measured after 24 hrs by ELISA.

Structures are written as SMILES. Calls of active or inactive are those of the source. The rule behind the calls is not given here.

Usually IC50 stands for the midpoint of a concentration-inhibition curve. As to `C=C/C=C/C/C(I)=C\CC#CC/C=C\C/C(I)=C\CCCC(=O)OC`, the outcome in assay [1] and in assay [2] was inactive. In addition, the IC50 in assay [3] worked out at 3.9 µM; in assay [5], 23.3 µM. Also, the inhibition result in assay [4] is “Active”.

On to `C/C=C/CC/C(I)=C\CC#CC/C=C\C/C(I)=C\CCCC(=O)OC`, for which the result in assay [1] and in assay [2] was inactive. Besides, the IC50 in assay [3] came out at 7 µM; in assay [5], 18 µM. For the same compound, in assay [4], the inhibition entry is “Active”.

As for `C=CCCC/C=C\CC#CC/C=C\C/C(I)=C\CCCC(=O)OC`, the result in assay [1] and in assay [2] was inactive. Besides, the inhibition entry in assay [6] is “Active”. For the same compound, the 50% inhibitory concentration (IC50) in assay [3] came to 53.6 µM; in assay [5], 3.1 µM.

Consider `CCCCC/C=C\CC#CC/C=C\C/C(I)=C\CCCC(=O)OC`, for which the outcome in assay [1] and in assay [2] was inactive. Besides, in assay [6], the inhibition result is “Active”. The inhibition entry in assay [3] is “inactive”. The IC50 in assay [5] was 1.8 µM.

The values are drawn from ChEMBL document CHEMBL3091312, “Characterization and anti-inflammatory effects of iodinated acetylenic acids isolated from the marine sponges Suberites mammilaris and Suberites japonicus” (J Nat Prod, 2013).
